Laboratory results reported in publication PMC10064330, “Reversible Dual-Covalent Molecular Locking of the 14-3-3/ERRγ Protein–Protein Interaction as a Molecular Glue Drug Discovery Approach” (Journal of the American Chemical Society, 2023).

Target: T1, 14-3-3γ/ERRγ complex (Homo sapiens, UniProt P61981+P62508)
T1 construct: made in house; host or cells: E. coli NiCo21 (DE3)
Assay: Differential scanning fluorimetry (DSF)
Type: binding
Conditions: 5 μM 14-3-3γ, 200 μM compound, relative to DMSO; for ΔTm at 200 µM: read-out: increase in 14-3-3γ melting temperature (ΔTm)
Protocol: We screened the apo-14-3-3γ, the binary 14-3-3γ/ERRγ (10 eq.) complex, and the ternary complex of 14-3-3γ, the ERRγ phosphopeptide, and compounds 1 and 3–10 (Figure 2c and Figures S4 and S5). The DSF data corroborated the enhanced stabilization observed in the FA data, with molecular locks 5 and 10 eliciting 14-3-3γ melting temperature increases of 4.7 ± 0.2 and 6.0 ± 0.3 °C, respectively (Figure 2c).
Figure S4. Differential Scanning Fluorimetry. Raw melting curves (a-c, g-i) and derivatives of these melting curves (d-f, j-l) of 14-3-3γ (5 µM) with ERRγ (25 µM) incubated with either DMSO (black) or 200 µM compound 1-10.
(1 picture or pasted object on this page, not shown here)
Figure S5. Differential Scanning Fluorimetry. Raw melting curves (a-c) and derivatives of these melting curves (d-f) of 14-3-3γ (5 µM) with ERRγ (25 µM) incubated with either DMSO (black) or 200 µM compound 1-10. (g) […]
Differential Scanning Fluorimetry (DSF)
Different Scanning Fluorimetry (DSF) assays were performed using 40 µL samples containing 5 µM 14-3-3γ, 50 µM ERRγ pS179 9-mer peptide, 200 µM compound (or 1% DMSO) and 5x ProteoOrange (Lumiprobe, 5000x stock in DMSO) in 10 mM Hepes, 150 mM NaCl, 50 µM TCEP (pH 8.0). The samples were heated from 35 °C to 79 °C at a rate of 0.3 °C per 15 s in a CFX96 Touch Real-Time PCR Detection System (Bio-Rad). Fluorescence intensity was determined using excitation 470/40 nm and emission 570/20 nm filters. Based on these melting curves, the negative derivative melting curve is obtained from which the melting temperature Tm was determined. ΔTm values represent the differences in melting temperature relative to the DMSO control. All described melting temperatures are based on three independent experiments from which the average and standard deviations were determined using excel. […]
Washing steps were repeated three more times. […] Fluorescence was measured using the Tecan SPARK plate reader at room temperature with an excitation wavelength of 485 nm and an emission wavelength of 535 nm. Furthermore, fluorescence anisotropy of each sample was measured using the Tecan Infinite F500 plate reader at room temperature (lex: 485 ± 20 nm; lem: 535 ± 25 nm; mirror: Dichroic 510; flashes: 20; integration time: 50 ms; settle time: 0 ms; gain: 50; and Z-position: calculated from well) to determine whether all 14 -3-3γ was captured by the magnetic beads (should results in low anisotropy values in samp les after capturing in comparison to samples […]

T1 sequence (P61981 whole entry, other chains not shown): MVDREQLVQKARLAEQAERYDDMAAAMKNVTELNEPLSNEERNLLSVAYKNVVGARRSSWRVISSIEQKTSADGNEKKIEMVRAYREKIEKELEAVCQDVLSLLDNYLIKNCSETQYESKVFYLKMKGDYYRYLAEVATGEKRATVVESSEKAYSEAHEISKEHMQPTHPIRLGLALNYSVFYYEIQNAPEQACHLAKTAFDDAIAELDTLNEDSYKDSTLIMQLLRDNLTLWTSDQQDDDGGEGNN

Row | SMILES | ΔTm at 200 µM (ERRγ 10 eq.) [°C] | also measured
1 | CN(C)CCSSCCN(C)C(=O)c1cccc(F)c1 [compound 1, reference compound] |  | decrease in melting temperature (ERRγ): 2.6 °C
2 | CN(C)CCNC(=O)c1ccc(C=O)c(F)c1 [compound 3] |  | increase in 14-3-3γ melting temperature (ΔTm) (ERRγ 10 eq.): no significant change
3 | CN(C)CCSSCCN(C)C(=O)c1ccc(C=O)c(F)c1 [compound 5] | 4.7 ± 0.2 | 
4 | CN(C)CCSSCCN(C)C(=O)c1cc(Br)cc(C=O)c1 [compound 10] | 6 ± 0.3 | 
